Experimental data published in patent publication EP1733725B2, “Pharmaceutical solution comprising ritonavir, a solvent (long chain fatty acid) and water” (ABBOTT LABORATORIES, priority 1999, dated 2000).
Where two headings read alike, the source gives them in different places.

Assay: oral bioavailability in dogs
Format: in vivo, beagle dogs
Conditions: dog, 5 mg/kg
Method: Protocol for Oral Bioavailability
Dogs (beagle dogs, mixed sexes, weighing 7-14 kg) were fasted overnight prior to dosing, but were permitted water ad libitum. Each dog received a 100 µg/kg subcutaneous dose of histamine approximately 30 minutes prior to dosing. Each dog received a single dosage form corresponding to a 5 mg/kg dose of the drug. The dose was followed by approximately 10 milliliters of water. Blood samples were obtained from each animal prior to dosing and 0.25, 0.5, 1.0, 1.5, 2, 3, 4, 6, 8, 10, and 12 hours after drug administration. The plasma was separated from the red cells by centrifugation and frozen (-30 °C) until analysis. Concentrations of parent drug were determined by reverse phase HPLC with low wavelength UV detection following liquid-liquid extraction of the plasma samples. The parent drug area under the curve was calculated by the trapezoidal method over the time course of the study. The absolute bioavailability of each test composition as calculated by comparing the area under the curve after oral dosing to that obtained from a single intravenous dose. Each capsule or capsule composition was evaluated in a group containing at least six dogs; the values reported are averages for each group of dogs.

| bioavailability (in vivo, administered as an unformulated solid in a capsule dosage form, 5 mg/kg oral dose in dogs, read-out: bioavailability) [%] | bioavailability (both sexes, beagle, plasma, administered as an unformulated solid in a capsule dosage form, 5 mg/kg oral dose in dogs, read-out: bioavailability) [%] | bioavailability (both sexes, beagle, plasma, solution in pharmaceutically acceptable organic solvents with long chain fatty acid, as encapsulated dosage form (soft elastic capsules or hard gelatin capsules), printed 'as high as about 60% or more', read-out: oral bioavailability) [%] | SMILES |
| --- | --- | --- | --- |
| < 2 |  |  | CC(C)c1nc(CN(C)C(=O)NC(C(=O)NC(Cc2ccccc2)CC(O)C(Cc2ccccc2)NC(=O)OCc2cncs2)C(C)C)cs1 (stereo not drawn) [bistosylate] |
|  | < 2 | ~60 | CC(C)c1nc(CN(C)C(=O)N[C@H](C(=O)N[C@@H](Cc2ccccc2)C[C@H](O)[C@H](Cc2ccccc2)NC(=O)OCc2cncs2)C(C)C)cs1 [compound of formula III] |
